Laboratory results taken from patent publication US8652444B2, “Oral compositions containing biphenol antibacterial compounds” (Colgate-Palmolive Company, priority 2004, dated 2014).
≈ marks a conversion by molar mass, not a printed value.

Columns and labels:
Assay type in all cases: cell-based
E. corrodens = experiment: MIC50 against bacteria; conditions: unit assumed
Method: (§1) MIC50 values against a variety of bacteria are measured for the dipropyl and dibutyl derivatives and compared to those for triclosan.

S. gordonii = experiment: MIC50 against bacteria; conditions: unit assumed
Method: as §1

B. cereus = experiment: MIC50 against bacteria; conditions: unit assumed
Method: as §1

P. nigresc. = experiment: MIC50 against bacteria; conditions: unit assumed
Method: as §1

P. intermedia = experiment: MIC50 against bacteria; conditions: unit assumed
Method: as §1

F. nucleatum = experiment: MIC50 against bacteria; conditions: unit assumed
Method: as §1

B. subtilis = experiment: MIC50 against bacteria; conditions: unit assumed
Method: as §1

M. catarrhalis = experiment: MIC50 against bacteria; conditions: unit assumed
Method: as §1

P. gingivalis = experiment: MIC50 against bacteria; conditions: unit assumed
Method: as §1

A. actino. = experiment: MIC50 against bacteria; conditions: unit assumed
Method: as §1

S. aureus = experiment: MIC50 against bacteria; conditions: unit assumed
Method: as §1

S. mutans = experiment: MIC50 against bacteria; conditions: unit assumed
Method: as §1

[1] = test system: staphylococcus, streptococcus, and bacillus bacteria; experiment: MIC50 against a variety of bacteria, comparison; conditions: against a number of staphylococcus, streptococcus, and bacillus bacteria of Table I; comparable to triclosan
Method: as §1

certain oral bacteria = experiment: MIC50 against certain oral bacteria, comparison
Method: as §1

Compound | MIC50 (E. corrodens) | MIC50 (S. gordonii) | MIC50 (B. cereus) | MIC50 (P. nigresc.) | MIC50 (P. intermedia) | MIC50 (F. nucleatum) | MIC50 (B. subtilis) | MIC50 (M. catarrhalis) | MIC50 (P. gingivalis) | MIC50 (A. actino.) | MIC50 (S. aureus) | MIC50 (S. mutans) | MIC50 relative to the dipropyl derivative [1] | MIC50 relative to an analogous compound containing propyl groups (certain oral bacteria)
CCCc1ccc(O)c(-c2cc(CCC)ccc2O)c1 [dipropyl derivative, 5,5′-propyl-2,2′-dihydroxy-1,1′-biphenyl] | 1 µg/mL (≈ 3.7 µM) | > 500 µg/mL | > 500 µg/mL | 7.8 µg/mL (≈ 28.8 µM) | 2 µg/mL (≈ 7.4 µM) | > 500 µg/mL | > 500 µg/mL | 7.8 µg/mL (≈ 28.8 µM) | 3.9 µg/mL (≈ 14.4 µM) | > 500 µg/mL | > 500 µg/mL | > 500 µg/mL |  | 
Oc1cc(Cl)ccc1Oc1ccc(Cl)cc1Cl [triclosan] | < 0.001 µg/mL | 7.8 µg/mL (≈ 26.9 µM) | 15.6 µg/mL (≈ 53.9 µM) | 3.9 µg/mL (≈ 13.5 µM) | 1 µg/mL (≈ 3.45 µM) | 1 µg/mL (≈ 3.45 µM) | 2 µg/mL (≈ 6.91 µM) | < 0.001 µg/mL | 0.5 µg/mL (≈ 1.73 µM) | 0.125 µg/mL (≈ 0.432 µM) | 2 µg/mL (≈ 6.91 µM) | 7.8 µg/mL (≈ 26.9 µM) |  | 
CCCCc1ccc(O)c(-c2cc(CCCC)ccc2O)c1 [dibutyl derivative, 5,5′-dibutyl-2,2′-dihydroxy-1,1′-biphenyl] | 0.5 µg/mL (≈ 1.68 µM) | 31.3 µg/mL (≈ 105 µM) | 31.3 µg/mL (≈ 105 µM) | 3.9 µg/mL (≈ 13.1 µM) | 2 µg/mL (≈ 6.7 µM) | > 500 µg/mL | 7.8 µg/mL (≈ 26.1 µM) | 15.6 µg/mL (≈ 52.3 µM) | 2 µg/mL (≈ 6.7 µM) | > 500 µg/mL | 7.8 µg/mL (≈ 26.1 µM) | 3.9 µg/mL (≈ 13.1 µM) | over an order of magnitude less than that of the dipropyl derivative | lower
